Laboratory results as given in the supplement of paper PMC10307832.

Legend:
Assay in all cases: relative viability (nuclei count vs DMSO), 5 days (fraction); higher = more cells survive
[1] = compound: NCC(=O)Nc1ccc(-n2nc(C(F)(F)F)cc2-c2ccc3c(ccc4ccccc43)c2)cc1 + O=C(c1cc(Cc2n[nH]c(=O)c3ccccc23)ccc1F)N1CCN(C(=O)C2CC2)CC1 [Olaparib] (partner 8 µM)
Procedure, shortened: (§1)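 Medians of duplicate plates are given as relative viability. That measure is the nuclei count in treated wells divided by the count in vehicle wells. Counts were taken on 4× images of lung cancer cell lines in 1536-well plates, 5 days after pin-tool dosing the day after seeding with one drug alone or a fixed anchor-drug dose plus five library-drug doses (not always all listed) in √10 steps.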

[2] = compound: NCC(=O)Nc1ccc(-n2nc(C(F)(F)F)cc2-c2ccc3c(ccc4ccccc43)c2)cc1 + COc1cccc2cc(-c3nc([C@H]4CC[C@H](C(=O)O)CC4)n4ncnc(N)c34)[nH]c12 [OSI-027] (partner 0.5 µM)
Procedure, shortened: as §1

[3] = compound: NCC(=O)Nc1ccc(-n2nc(C(F)(F)F)cc2-c2ccc3c(ccc4ccccc43)c2)cc1 + Nc1ncn([C@H]2C[C@H](O)[C@@H](CO)O2)c(=O)n1 [Decitabine] (partner 2 µM)
Procedure, shortened: as §1

[4] = compound: NCC(=O)Nc1ccc(-n2nc(C(F)(F)F)cc2-c2ccc3c(ccc4ccccc43)c2)cc1 + C[C@@H](Oc1cc(-c2cnn(C3CCNCC3)c2)cnc1N)c1c(Cl)ccc(F)c1Cl [Crizotinib] (partner 1 µM)
Procedure, shortened: as §1

Cell Line	relative viability ([1]; first compound 0.02 µM)	relative viability ([1]; first compound 0.06325 µM)	relative viability ([1]; first compound 0.2 µM)	relative viability ([1]; first compound 0.6325 µM)	relative viability ([1]; first compound 2 µM)	relative viability ([2]; first compound 0.02 µM)	relative viability ([2]; first compound 0.06325 µM)	relative viability ([2]; first compound 0.2 µM)	relative viability ([2]; first compound 0.6325 µM)	relative viability ([2]; first compound 2 µM)	relative viability ([3]; first compound 0.02 µM)	relative viability ([3]; first compound 0.06325 µM)	relative viability ([3]; first compound 0.2 µM)	relative viability ([3]; first compound 0.6325 µM)	relative viability ([3]; first compound 2 µM)	relative viability ([4]; first compound 0.02 µM)	relative viability ([4]; first compound 0.06325 µM)	relative viability ([4]; first compound 0.2 µM)	relative viability ([4]; first compound 0.6325 µM)	relative viability ([4]; first compound 2 µM)
BEN	1	1.23	0.993	1.21	1.03	0.281	0.32	0.296	0.326	0.297	0.69	0.669	0.7	0.709	0.77	0.923	0.997	0.837	0.965	0.9
NCI-H1666	0.734	0.83	0.824	0.747	0.776	0.932	0.836	0.945	0.845	0.861	0.771	0.567	0.778	0.746	0.652	1	0.904	1.16	0.854	0.982
LC-2-ad	0.676	0.801	0.728	0.719	0.698	0.755	0.911	0.647	0.75	1.05	0.808	0.779	0.831	0.789	0.774	0.463	0.543	0.433	0.47	0.389
SK-LU-1	0.477	0.463	0.589	0.479	0.556	0.343	0.358	0.441	0.313	0.374	0.6	0.658	0.734	0.615	0.633	0.854	0.949	1.11	0.831	1.03
ChaGo-K-1	0.443	0.488	0.388	0.443	0.405	0.475	0.661	0.468	0.592	0.548	0.55	0.526	0.506	0.522	0.549	1.14	1.08	1.01	1.05	1.03
COR-L 105	0.696	0.772	0.75	0.766	0.638	0.593	0.626	0.623	0.776	0.6	0.726	0.588	0.698	0.635	0.653	0.873	0.765	0.803	0.845	1.06
NCI-H1975	0.763	0.847	0.887	0.744	0.873	0.676	0.811	0.772	0.834	0.752	0.407	0.39	0.43	0.404	0.464	0.96	0.954	0.954	0.906	0.914
NCI-H1993	1.01	1.01	1.06	0.915	1.08	0.545	0.493	0.541	0.483	0.542	0.558	0.634	0.663	0.611	0.64	0.939	0.987	0.822	1.03	0.902
RERF-LC-KJ	0.98	0.97	1.01	0.985	0.897	0.542	0.608	0.515	0.644	0.583	0.758	0.791	0.673	0.78	0.641	0.867	0.845	0.847	0.791	0.809
NCI-H23	0.33	0.442	0.364	0.329	0.336	0.576	0.664	0.809	0.608	0.531	0.32	0.357	0.317	0.311	0.324	0.512	0.501	0.542	0.509	0.565
HCC-366	0.351	0.406	0.345	0.387	0.349	0.829	1.08	1.09	0.848	0.816	0.353	0.369	0.367	0.352	0.517	0.558	0.589	0.55	0.736	0.456
EMC-BAC-2	0.433	0.514	0.539	0.483	0.5	0.292	0.367	0.371	0.361	0.387	1.02	0.998	1.05	0.948	0.944	0.737	0.763	0.797	0.712	0.765
NCI-H2405	0.873	0.89	0.863	0.857	0.919	0.634	0.646	0.699	0.642	0.689	0.686	0.759	0.837	0.723	0.754	0.916	0.927	0.914	0.847	0.881
NCI-H358	0.613	0.58	0.632	0.636	0.606	0.749	0.842	0.84	0.711	0.834	0.217	0.211	0.224	0.206	0.217	0.622	0.557	0.572	0.56	0.761
NCI-H1944	0.463	0.384	0.4	0.388	0.397	0.37	0.442	0.427	0.423	0.47	0.492	0.43	0.436	0.392	0.44	1.04	1.05	1.11	1.06	1.13
EPLC-272H	0.731	0.699	1.05	0.848	0.851	0.307	0.246	0.28	0.311	0.274	0.382	0.35	0.331	0.423	0.372	1.03	0.965	0.881	0.878	0.962
